Measured values from ChEMBL document CHEMBL1201862, “PubChem BioAssay data set” (2004).
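The compound was tested at five concentrations on cells cultured in 96-well plates, with a 48-hour exposure period. The concentration for 50% growth inhibition is given as GI50.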 The source made the active and inactive calls. Cut-off read from the data, not from the text of the source: active = GI50 up to about 1.1 µM and inactive = higher.

Assays:
Experiment in all cases: NCI tumour cell line growth inhibition, 48 h
[1] = system: A549
[2] = system: DLD-1
[3] = system: HCC 2998
[4] = system: M14
[5] = system: M19-MEL
[6] = system: NCI-H23
[7] = system: NCI-H522
[8] = system: SF-539
[9] = system: SK-MEL-2
[10] = system: SK-MEL-5
[11] = system: SN12C
[12] = system: SR
[13] = system: DMS-114
[14] = system: SW-620
[15] = system: BT-549
[16] = system: Hs-578T
[17] = system: MCF7
[18] = system: MDA-MB-231
[19] = system: MDA-MB-435
[20] = system: MDA-N

Measured: GI50

CC(=O)Nc1ccc(/C=C(\NC(=O)c2ccccc2)C(=O)NNS(=O)(=O)c2ccc(C)cc2)cc1
inactive: [1] > 100 µM | [2] 33 µM | [3] > 100 µM | [4] > 100 µM | [5] > 100 µM | [6] > 100 µM | [7] > 100 µM | [8] > 100 µM | [9] > 100 µM | [10] > 100 µM | [11] > 100 µM | [12] 20.1 µM

Nc1ccc(N)c2c1C(=O)c1ccccc1C2=O
inactive: [1] 24.4 µM | [2] 5.83 µM | [13] 32.7 µM | [3] 3.97 µM | [4] 17.7 µM | [5] 95.5 µM | [6] 17.7 µM | [7] 9.48 µM | [8] 34.4 µM | [9] 79.1 µM | [10] 15.8 µM | [11] 13.2 µM | [14] 32.7 µM

CC1=C(C#N)c2nc3ccccc3n2C(=O)C1(C)CCO (configuration not stated)
inactive: [1] > 100 µM | [15] > 100 µM | [3] > 100 µM | [16] > 100 µM | [4] > 100 µM | [17] > 100 µM | [18] > 100 µM | [19] > 100 µM | [20] > 100 µM | [6] > 100 µM | [7] > 100 µM | [8] > 100 µM | [9] > 100 µM | [10] > 100 µM | [11] > 100 µM | [12] 24.3 µM | [14] > 100 µM

COc1cc(C2C(Cl)C(=O)N2NC(=O)c2ccc(NC(C)=O)cc2)cc(Br)c1O (configuration not stated)
inactive: [1] > 100 µM | [2] > 100 µM | [3] > 100 µM | [5] > 100 µM | [6] > 100 µM | [7] > 100 µM | [8] > 100 µM | [9] > 100 µM | [10] > 100 µM | [12] > 100 µM | [14] > 100 µM

Cc1cc(O)c(C(=O)CC2(O)C(=O)Nc3c(Cl)cc(Cl)cc32)c(=O)o1 (configuration not stated)
inactive: [1] > 100 µM | [2] > 100 µM | [3] > 100 µM | [4] > 100 µM | [5] 46.8 µM | [6] > 100 µM | [7] > 100 µM | [8] 61.1 µM | [9] > 100 µM | [10] > 100 µM | [11] > 100 µM | [12] > 100 µM | [14] 52.1 µM

O=C(O)CCS/C(=C\C(SCCC(=O)O)c1ccc(Cl)cc1)c1ccc(Cl)cc1 (configuration not stated)
inactive: [1] 57.1 µM | [15] 30.5 µM | [3] 24.2 µM | [16] 63.5 µM | [4] 47.9 µM | [17] 21.3 µM | [18] 71.4 µM | [19] 36.4 µM | [20] 36.6 µM | [6] 42.5 µM | [7] 33.5 µM | [8] 37.2 µM | [9] 26.5 µM | [10] 48.3 µM | [11] 50 µM | [12] 29.4 µM | [14] 28.1 µM

NCc1ccccc1C1CSCSC1
inactive: [1] > 100 µM | [2] > 100 µM | [13] > 100 µM | [5] > 100 µM | [6] > 100 µM | [7] > 100 µM | [8] > 100 µM | [9] > 100 µM | [10] > 100 µM | [11] > 100 µM | [14] > 100 µM

CCCCCC(/C=C/[C@@H]1CC(=O)C[C@H]1O[Si](C)(C)C(C)(C)C)OCOCCOC (some centres not stated)
inactive: [1] 9.55 µM | [15] 3.26 µM | [3] 13.6 µM | [16] 2.9 µM | [4] 4.04 µM | [17] 3.65 µM | [18] 4.48 µM | [19] 2.02 µM | [20] 3.41 µM | [6] 3.56 µM | [7] 1.93 µM | [8] 2.32 µM | [9] 4.22 µM | [10] 3.33 µM | [11] 8.43 µM | [12] 1.5 µM | [14] 2.96 µM

COC(=O)CC(=O)OSc1ccccc1
inactive: [1] 12.5 µM | [2] 17.2 µM | [13] 11.6 µM | [3] 28.1 µM | [4] 17.6 µM | [6] 24.7 µM | [7] 1.61 µM | [8] 12.3 µM | [9] 34.6 µM | [10] 22.3 µM | [11] 12.9 µM | [12] 6.03 µM | [14] 18.1 µM

Cc1nc2cc(/N=N/c3c(C)noc3C)ccc2[nH]1
inactive: [1] 19.1 µM | [15] 22.2 µM | [3] 54.3 µM | [16] 16.5 µM | [4] 26.5 µM | [17] 18.2 µM | [18] 28.2 µM | [19] 21.3 µM | [20] 16.8 µM | [6] 35.3 µM | [7] 23.3 µM | [8] 17.6 µM | [9] 34.8 µM | [10] 12.4 µM | [11] 33.6 µM | [12] 16.9 µM | [14] 24.8 µM

CCCCC1=NNC(=O)C1
inactive: [1] > 100 µM | [15] > 100 µM | [3] > 100 µM | [16] 4.9 µM | [4] > 100 µM | [17] > 100 µM | [18] > 100 µM | [19] > 100 µM | [20] > 100 µM | [6] > 100 µM | [7] > 100 µM | [8] > 100 µM | [9] > 100 µM | [10] > 100 µM | [11] > 100 µM | [12] > 100 µM | [14] > 100 µM

COc1ccc(C(=O)N=C2N(c3ccccc3)C(=N/c3ccccc3)/C(=N\c3ccccc3)N2c2ccccc2)cc1
inactive: [1] 30.3 µM | [15] 13.2 µM | [3] > 85.7 µM | [16] 7.78 µM | [4] 8.22 µM | [17] > 100 µM | [18] > 62.8 µM | [19] 88.3 µM | [20] 19.2 µM | [6] 39.3 µM | [7] 30.7 µM | [8] 35 µM | [9] 21.3 µM | [10] 23.2 µM | [11] > 67.1 µM | [12] > 100 µM | [14] 99.8 µM

O=c1c2cccnc2[nH]c2ccc3cn[nH]c3c12
inactive: [1] > 10 µM | [15] > 10 µM | [3] > 10 µM | [16] 6.21 µM | [4] 7.14 µM | [17] 7.06 µM | [18] 8.53 µM | [19] > 10 µM | [20] > 10 µM | [6] > 10 µM | [7] > 10 µM | [8] 7.52 µM | [9] > 10 µM | [10] > 10 µM | [11] 9.06 µM | [12] 3.29 µM | [14] > 10 µM
